# Test results from ChEMBL document CHEMBL5257034, “Hybrid molecules: The privileged scaffolds for various pharmaceuticals” (Eur J Med Chem, 2016).
# Legend:
# [1] = target: T1, Prostaglandin G/H synthase 2 (Rattus norvegicus, UniProt P35355); experiment: Inhibition of COX2 in rat macrophages using arachidonic acid as substrate preincubated with compound for 30 mins followed by substrate addition and measured after 20 mins by EIA; format: cell-based, Macrophage
# T1 sequence (P35355 whole entry): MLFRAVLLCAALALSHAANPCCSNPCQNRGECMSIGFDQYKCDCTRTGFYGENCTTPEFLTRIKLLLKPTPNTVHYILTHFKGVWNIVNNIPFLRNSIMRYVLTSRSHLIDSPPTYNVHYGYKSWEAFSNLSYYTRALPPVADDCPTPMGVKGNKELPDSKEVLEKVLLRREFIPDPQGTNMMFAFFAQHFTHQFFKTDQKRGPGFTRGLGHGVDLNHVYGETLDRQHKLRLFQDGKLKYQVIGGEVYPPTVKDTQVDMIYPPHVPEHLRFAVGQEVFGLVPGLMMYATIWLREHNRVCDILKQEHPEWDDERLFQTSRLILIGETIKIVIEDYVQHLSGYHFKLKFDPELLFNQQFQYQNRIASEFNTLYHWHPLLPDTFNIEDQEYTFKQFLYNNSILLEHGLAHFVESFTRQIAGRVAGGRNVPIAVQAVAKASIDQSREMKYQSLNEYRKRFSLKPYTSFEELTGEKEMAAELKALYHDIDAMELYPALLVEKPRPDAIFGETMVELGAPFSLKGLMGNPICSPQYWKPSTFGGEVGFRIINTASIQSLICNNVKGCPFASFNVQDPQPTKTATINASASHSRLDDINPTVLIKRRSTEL
# [2] = target: T2, Polyunsaturated fatty acid 5-lipoxygenase (Rattus norvegicus, UniProt P12527); experiment: Inhibition of 5-LOX in Sprague-Dawley rat leukocytes preincubated for 30 mins followed by calcium ionophore A23187 addition and measured after 20 mins by EIA; format: cell-based, Leucocyte
# T2 sequence (P12527 whole entry): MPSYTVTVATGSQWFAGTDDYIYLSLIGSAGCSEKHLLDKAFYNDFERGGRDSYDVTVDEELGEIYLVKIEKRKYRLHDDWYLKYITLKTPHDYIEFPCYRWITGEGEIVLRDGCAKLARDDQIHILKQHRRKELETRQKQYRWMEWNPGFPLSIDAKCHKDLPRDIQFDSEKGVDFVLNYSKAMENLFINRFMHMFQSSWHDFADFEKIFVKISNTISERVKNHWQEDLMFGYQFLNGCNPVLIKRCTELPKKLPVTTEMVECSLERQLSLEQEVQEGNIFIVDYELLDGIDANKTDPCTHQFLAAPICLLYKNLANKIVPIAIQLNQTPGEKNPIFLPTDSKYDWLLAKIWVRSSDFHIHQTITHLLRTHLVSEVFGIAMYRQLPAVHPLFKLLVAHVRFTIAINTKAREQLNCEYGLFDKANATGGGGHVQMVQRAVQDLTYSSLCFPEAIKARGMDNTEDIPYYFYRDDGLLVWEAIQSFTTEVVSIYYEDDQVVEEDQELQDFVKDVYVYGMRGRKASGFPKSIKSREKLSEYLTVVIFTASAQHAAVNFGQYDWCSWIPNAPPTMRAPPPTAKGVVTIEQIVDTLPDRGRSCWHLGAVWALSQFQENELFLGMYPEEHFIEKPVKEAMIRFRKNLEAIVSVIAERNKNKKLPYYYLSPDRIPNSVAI
# [3] = Selectivity index, ratio of IC50 for inhibition of COX2 in rat macrophages to IC50 for inhibition of COX1 in calf endotheliocyte
# Plasmodium falciparum [4] = experiment: Antiplasmodial activity against Plasmodium falciparum W2 infected in red blood cells (unknown origin) incubated for 72 hrs by LDH assay; format: functional, organism-based, Red blood cell; settings: W2, Erythrocyte
# [5] = test system: Mycobacterium tuberculosis; experiment: Antibacterial activity against Mycobacterium tuberculosis H37Rv assessed as reduction in relative light unit at 2 microg/ml incubated for 72 hrs by luciferase reporter phage assay relative to control; format: functional; design: scale not given: the % may be the effect or the level left; settings: dose 2 µg/ml
# Candida albicans [6] = experiment: Antifungal activity against Candida albicans ATCC 76615 incubated for 24 hrs by microbroth dilution method; format: functional
# [7] = test system: Mycobacterium tuberculosis; experiment: Antibacterial activity against Mycobacterium tuberculosis H37Rv (ATTCC 27294) by alamar blue based broth dilution assay; format: functional
# [8] = test system: Mycobacterium tuberculosis; experiment: Antibacterial activity against Mycobacterium tuberculosis H37Rv; format: functional
# [9] = test system: Mycobacterium tuberculosis; experiment: Potency index, ratio of pyrazinamide MIC to test compound MIC for antibacterial activity against Mycobacterium tuberculosis H37Rv; format: functional
# [10] = test system: Mycobacterium tuberculosis; experiment: Antibacterial activity against Mycobacterium tuberculosis H37Rv assessed as reduction in relative light unit at 5.2 microg/ml incubated for 72 hrs by luciferase reporter phage assay relative to control; format: functional; design: scale not given: the % may be the effect or the level left; settings: dose 5.2 µg/ml
# [11] = test system: Meyerozyma guilliermondii; experiment: Antifungal activity against Meyerozyma guilliermondii assessed as zone of inhibition; format: functional
# Pichia norvegensis = experiment: Antifungal activity against Candida mycoderma incubated for 24 hrs; format: functional
# Candida albicans [12] = experiment: Antifungal activity against Candida albicans ATCC 2091; format: functional
# Aspergillus niger [13] = experiment: Antifungal activity against Aspergillus niger ATCC 9029; format: functional
# Pichia kudriavzevii = experiment: Antifungal activity against Candida krusei ATCC 6258; format: functional
# Mus musculus = experiment: Antiinflammatory activity against ear oedema mouse model assessed as inhibition of xylene induced edema; format: functional
# MCF7 = experiment: Cytotoxicity against human MCF7 cells measured 24 hrs by MTT assay; format: functional, cell-based; settings: MCF7, 24 h
# [14] = test system: Mycobacterium tuberculosis; experiment: Antibacterial activity against Mycobacterium tuberculosis; format: functional
# Aspergillus niger [15] = experiment: Antifungal activity against Aspergillus niger assessed as zone of inhibition; format: functional
# Candida albicans [16] = experiment: Antifungal activity against Candida albicans assessed as zone of inhibition; format: functional
# Plasmodium falciparum [17] = experiment: Antimalarial activity against chloroquine-sensitive Plasmodium falciparum 3D7; format: functional
# Candida albicans [18] = experiment: Antifungal activity against Candida albicans; format: functional, organism-based
smiles,measurement,setting,value
CS(=O)(=O)c1ccc(-c2nc(SCCN(O)C(N)=O)nn2-c2ccc(Br)cc2)cc1,IC50,[1],0.15 µM
same,IC50,[2],0.85 µM
same,Ratio IC50,[3],0.015
COc1cc(Nc2nc(OCc3cn(CCNc4cccc5cc(Cl)ccc45)nn3)nc(N(C)C)n2)cc(OC)c1,IC50,Plasmodium falciparum [4],1.15 µM
CO[C@H]1/C=C/O[C@@]2(C)Oc3c(C)c(O)c4c(O)c(c(/C=N/N5CCN(C)CC5)c(O)c4c3C2=O)NC(=O)/C(C)=C\C=C\[C@H](C)[C@H](O)[C@@H](C)[C@@H](O)[C@@H](C)[C@H](OC(C)=O)[C@@H]1C [RIFAMPIN],Activity,[5],87%
CCCCCCCCCCCCCCCC[n+]1cnn(Cc2ccc(Cl)cc2Cl)c1.[Br-],MIC,Candida albicans [6],30 µg/mL
Cn1ccnc1-c1nn2cc(-c3ccc(-c4ccc([N+](=O)[O-])cc4)cc3)nc2s1,MIC,[7],3.14 µg/mL
Cc1cccc(C)c1Nc1nc(OCc2cn(CCNc3cccc4cc(Cl)ccc34)nn2)nc(N(C)C)n1,IC50,Plasmodium falciparum [4],1.69 µM
O=C1Nc2ccccc2C12C(c1cccc([N+](=O)[O-])c1)C([N+](=O)[O-])C1CSCN12 (stereo not given),MIC,[8],7.6 µM
same,Ratio,[9],6.7
CC(=O)OC[C@H]1O[C@@H](OCc2cn(Cc3ccc4ccccc4n3)nn2)[C@H](OC(C)=O)[C@@H](OC(C)=O)[C@@H]1OC(C)=O,Activity,[10],76.41%
COc1cc(Nc2nc(OCc3cn(CCCNc4cccc5cc(Cl)ccc45)nn3)nc(N(C)C)n2)cc(OC)c1,IC50,Plasmodium falciparum [4],1.2 µM
OC(Cn1cncn1)(Cn1cncn1)c1ccc(F)cc1F [FLUCONAZOLE],inhibition zone (IZ),[11],21 mm
same,MIC,Pichia norvegensis,4 µg/mL
same,MIC,Candida albicans [12],6.25 µg/mL
same,MIC,Aspergillus niger [13],12.5 µg/mL
same,MIC,Pichia kudriavzevii,3.12 µg/mL
same,MIC,Candida albicans [6],52.2 µg/mL
CC[C@@H](CO)NCCN[C@@H](CC)CO [ETHAMBUTOL],MIC,[8],7.6 µM
CSc1nc(-c2ccc(S(N)(=O)=O)cc2)n(-c2ccc(Cl)cc2)n1,inhibition (INH),Mus musculus,80%
CCn1cc(C(=O)NN2C(=O)CSC2c2ccccc2OC)c(=O)c2cc(F)c(N3CCNCC3)cc21 (stereo not given),MIC,Candida albicans [12],3.12 µg/mL
same,MIC,Aspergillus niger [13],12.5 µg/mL
same,MIC,Pichia kudriavzevii,1.59 µg/mL
COc1cc(/C=C/c2ccc(O)c(/C=N/NC(N)=S)c2)cc(OC)c1,IC50,MCF7,25 µM
O=C1Nc2cc3c(-c4ccccc4)c(-c4ccccc4)oc(=O)c3cc2C(c2ccc([N+](=O)[O-])cc2)N1 (stereo not given),MIC,[8],40 µg/mL
O=C1NN=C(/N=C/c2cccc(Cl)c2)/C1=N\Nc1nc2c([N+](=O)[O-])cccc2s1,MIC,[14],1.66 µg/mL
COc1ccc(-c2nc(-c3ccccc3)c(-c3ccccc3)n2C(NN(c2ccccc2)c2ccccc2)c2ccccc2)c(OC)c1OC (stereo not given),inhibition zone (IZ),Aspergillus niger [15],27 mm
same,inhibition zone (IZ),Candida albicans [16],28 mm
COC1=CC(=O)C[C@@H](C)[C@]12Oc1c(Cl)c(OC)cc(OC)c1C2=O [GRISEOFULVIN],inhibition zone (IZ),Aspergillus niger [15],36 mm
same,inhibition zone (IZ),Candida albicans [16],39 mm
CC1=C(c2nnc(/N=C3\C(=O)Nc4ccc(Cl)cc43)o2)C(c2ccccc2)NC(=S)N1 (stereo not given),MIC,Plasmodium falciparum [17],0.035 µg/mL
O=C1c2cccc3c(Br)ccc(c23)C(=O)N1CCCn1c[n+](Cc2ccc(F)cc2F)cn1.[Br-],MIC,Pichia norvegensis,4 µg/mL
Cc1cccc(C)c1Nc1nc(OCc2cn(CCCNc3cccc4cc(Cl)ccc34)nn2)nc(N(C)C)n1,IC50,Plasmodium falciparum [4],0.73 µM
NC(Cc1cc2ccccc2c2ccccc12)C(=O)N[C@H](C(=O)O)[C@H]1O[C@@H](n2ccc(=O)[nH]c2=O)[C@H](O)[C@@H]1O (stereo not given in full),IC50,Candida albicans [18],0.31 µg/mL
CCCCCCCCCCC(=O)N[C@H](C(=O)O)[C@H]1O[C@@H](n2ccc(=O)[nH]c2=O)[C@H](O)[C@@H]1O,MIC,Candida albicans [18],40 µg/mL
